Reference: patent US9115143B2, “Substituted indole derivatives as gamma secretase modulators” (Janssen Pharmaceuticals, Inc., priority 2011, dated 2015)

What was measured:
Aβ42 [1] = assay: Screening for γ-secretase-modulating activity: Aβ42 in supernatant of SKNBE2 cells carrying hAPP 695 wild type (Alphalisa); assay type: cell-based, human; details: SKNBE2 human neuroblastoma cells carrying hAPP 695 wild type; overnight incubation; Alphalisa on supernatant
Summary of the method: (§1)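 Secreted Aβ42 (C-terminal/N-terminal antibody pair) and Aβtotal (N-terminal/mid-region pair) were quantified by AlphaLISA after overnight compound exposure of wild-type hAPP 695 SKNBE2 cells at 37 °C. Values expressed relative to compound-free maximum, with IC50 from nonlinear 4-parameter regression.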

Aβtotal = assay: Screening for γ-secretase-modulating activity: Aβtotal in supernatant of SKNBE2 cells carrying hAPP 695 wild type (Alphalisa); assay type: cell-based, human; details: overnight incubation, Alphalisa on supernatant
Summary of the method: as §1

Aβ42 [2] = assay: In vivo efficacy B-1b: brain soluble Aβ42, MSD electrochemiluminescence multiplex; details: mouse brain soluble fraction, dose 30 mg/kg oral dosing, 4 h after dose; untreated control set at 100; read-out: Aβ42 (% vs Ctrl)_Mean
Source text: (§2) To determine whether acute administration of an Aβ42 lowering agent would reduce Aβ42 levels in vivo, non-transgenic rodents, e.g. mice or rats were used. Animals treated with the Aβ42 lowering agent were examined and compared to those untreated or treated with vehicle and brain levels of soluble Aβ42, Aβ40, Aβ38, and Aβ37 were quantitated by Meso Scale Discovery's (MSD) electrochemiluminescence detection technology. Treatment periods varied from hours (h) to days and were adjusted based on the results of the Aβ42 lowering once a time course of onset of effect could be established.
(§3) A typical protocol for measuring Aβ42 lowering in vivo is shown but it is only one of many variations that could be used to optimize the levels of detectable Aβ. For example, Aβ42 lowering compounds were formulated in 20% of Captisol® (a sulfobutyl ether of β-cyclodextrin) in water or 20% hydroxypropyl β cyclodextrin. The Aβ42 lowering agents were administered as a single oral dose or by any acceptable route of administration to overnight fasted animals. After 4 h, the animals were sacrificed and Aβ42 levels were analysed.
(§4) Blood was collected by decapitation and exsanguinations in EDTA-treated collection tubes. Blood was centrifuged at 1900 g for 10 minutes (min) at 4° C. and the plasma recovered and flash frozen for later analysis. The brain was removed from the cranium and hindbrain. The cerebellum was removed and the left and right hemisphere were separated. The left hemisphere was stored at −18° C. for quantitative analysis of test compound levels. The right hemisphere was rinsed with phosphate-buffered saline (PBS) buffer and immediately frozen on dry ice and stored at −80° C. until homogenization for biochemical assays.
(§5) Mouse brains from non-transgenic animals were resuspended in 8 volumes of 0.4% DEA (diethylamine)/50 mM NaCl containing protease inhibitors (Roche-11873580001 or 04693159001) per gram of tissue, e.g. for 0.158 g brain, add 1.264 ml of 0.4% DEA. All samples were homogenized in the FastPrep-24 system (MP Biomedicals) using lysing matrix D (MPBio #6913-100) at 6 m/s for 20 seconds. Homogenates were centrifuged at 20800×g for 5 min and supernatants collected. Supernatants were centrifuged at 221.300×g for 50 min. The resulting high speed supernatants were then transferred to fresh eppendorf tubes. Nine parts of supernatant were neutralized with 1 part 0.5 M Tris-HCl pH 6.8 and used to quantify Aβ.
(§6) To quantify the amount of Aβ42, Aβ40, Aβ38, and Aβ37 in the soluble fraction of the brain homogenates, simultaneous specific detection of Aβ42, Aβ40, Aβ38, and Aβ37 was performed using MSD's electro-chemiluminescence multiplex detection technology. In this assay purified monoclonal antibodies specific for Abeta37 (JRD/Aβ37/3), Abeta38 (J&JPRD/Aβ38/5), Abeta40 (JRF/cAβ40/28), and Abeta42 (JRF/cAβ42/26) were coated on MSD 4-plex plates. Briefly, the standards (a dilution of synthetic Aβ42, Aβ40, Aβ38, and Aβ37) were prepared in 1.5 ml Eppendorf tube in Ultraculture, with final concentrations ranging from 10000 to 0.3 pg/m. The samples and standards were co-incubated with Sulfo-tag labelled JRF/rAβ/2 antibody to the N-terminus of Aβ as detector antibody. 50 μl of conjugate/sample or conjugate/standards mixtures were then added to the antibody-coated plate. The plate was allowed to incubate overnight at 4° C. in order to allow formation of the antibody-amyloid complex. Following this incubation and subsequent wash steps the assay was finished by adding read buffer according to the manufacturer's instructions (Meso Scale Discovery, Gaitherburg, Md.).
(§7) The SULFO-TAG emits light upon electrochemical stimulation initiated at the electrode. MSD Sector instrument SI6000 was used for signal read-out.
In this model a Aβ42 lowering compared to untreated animals would be advantageous, in particular a Aβ42 lowering with at least 10%, more in particular a Aβ42 lowering with at least 20%. […]

Aβ40 = assay: In vivo efficacy B-1b/B-2b: brain soluble Aβ40, MSD electrochemiluminescence multiplex; details: mouse brain soluble fraction, dose 30 mg/kg oral dosing, 4 h after dose; untreated control set at 100; read-out: Aβ40 (% vs Ctrl)_Mean
Source text: as §2, §3, §4, §5, §6, §7
The results are shown in Table 5 (dose 30 mg/kg oral dosing) (value for untreated animals as control (Ctrl) was set at 100): […]

Aβ38 = assay: In vivo efficacy B-2b: brain soluble Aβ38, MSD electrochemiluminescence multiplex; details: mouse brain soluble fraction, dose 30 mg/kg oral dosing, 4 h after dose; untreated control set at 100; read-out: Aβ38 (% vs Ctrl)_Mean
Source text: as §2, with “Aβ38 increasing agents” for “Aβ42 lowering agent”, “increase Aβ38” for “reduce Aβ42”, “MSD” for “Meso Scale Discovery's (MSD)”, “Aβ38 increase” for “Aβ42 lowering”
as §3, with “measuring Aβ38 increase” for “measuring Aβ42 lowering”, “example, Aβ38 increasing agents” for “example, Aβ42 lowering compounds”, “The Aβ38 increasing” for “The Aβ42 lowering”, “and Aβ38” for “and Aβ42”
as §4, §5, §6, §7
In this model a Aβ38 increase compared to untreated animals would be advantageous, in particular a Aβ38 increase with at least 10%, more in particular a Aβ38 increase with at least 20%. […]

[3] = SKNBE2 human neuroblastoma cells carrying hAPP 695 wild type
[4] = Homo sapiens, SKNBE2, SKNBE2 human neuroblastoma cells carrying hAPP 695 wild type

| IC50 (Aβ42 [1]) [µM] | IC50 (Aβtotal; [3]) [µM] | melting point [°C] | IC50 (Aβtotal; [4]) [µM] | SMILES | response vs control in vivo at 30 mg/kg (Aβ42 [2]) [%] | response vs control in vivo at 30 mg/kg (Aβ40) [%] | response vs control in vivo at 30 mg/kg (Aβ38) [%] |
| --- | --- | --- | --- | --- | --- | --- | --- |
| 0.019 | > 10 | 297 |  | COc1c(C#N)ccc2[nH]c(-c3cn4c(n3)C(c3c(C)cccc3F)OCC4)cc12 (stereo not shown) [Compound 138, 2-[8-(2-fluoro-6-methylphenyl)-5,6-dihydro-8H-imidazo[2,1-c][1,4]oxazin-2-yl]-4-methoxy-1H-indole-5-carbonitrile] | 75 | 90 | 117 |
| 0.031 | > 10 | 254.3 |  | COc1c(C#N)ccc2[nH]c(-c3cn4c(n3)C(c3ccccc3Cl)OCC4)cc12 (stereo not shown) [Compound 50, 2-[8-(2-chlorophenyl)-5,6-dihydro-8H-imidazo[2,1-c][1,4]oxazin-2-yl]-4-methoxy-1H-indole-5-carbonitrile] | 43 | 46 | 141 |
| 0.045 |  |  | > 10 | COc1c(C#N)ccc2[nH]c(-c3nc4n(n3)CCOC4c3ccccc3C(F)(F)F)cc12 (single isomer, unassigned) [Compound 56, 2-[5,6-dihydro-8-[2-(trifluoromethyl)phenyl]-8H-[1,2,4]triazolo[5,1-c][1,4]oxazin-2-yl]-4-methoxy-1H-indole-5-carbonitrile] | 54 | 91 | 139 |
| 0.023 | > 10 | 280.1 |  | COc1c(C#N)ccc2[nH]c(-c3cn4c(n3)C(c3cc(F)ccc3C)OCC4)cc12 (stereo not shown) [Compound 158, 2-[8-(5-fluoro-2-methylphenyl)-5,6-dihydro-8H-imidazo[2,1-c][1,4]oxazin-2-yl]-4-methoxy-1H-indole-5-carbonitrile] | 66 | 87 | 140 |
| 0.065 | > 10 |  |  | COc1c(C#N)ccc2[nH]c(-c3cn4c(n3)C(c3ccc(F)c(Cl)c3)OCC4)cc12 (stereo not shown) [Compound 154, 2-[8-(3-chloro-4-fluorophenyl)-5,6-dihydro-8H-imidazo[2,1-c][1,4]oxazin-2-yl]-4-methoxy-1H-indole-5-carbonitrile] | 90 | 101 | 170 |

Second part, the compound before the results:

| SMILES | IC50 (Aβ42 [1]) [µM] | IC50 (Aβtotal; [3]) [µM] | melting point [°C] | IC50 (Aβtotal; [4]) [µM] | response vs control in vivo at 30 mg/kg (Aβ42 [2]) [%] | response vs control in vivo at 30 mg/kg (Aβ40) [%] | response vs control in vivo at 30 mg/kg (Aβ38) [%] |
| --- | --- | --- | --- | --- | --- | --- | --- |
| COc1c(C#N)ccc2[nH]c(-c3nc4n(n3)CCOC4c3cccc(F)c3C)cc12 (stereo not shown) [Compound 147, 2-[8-(3-fluoro-2-methylphenyl)-5,6-dihydro-8H-[1,2,4]triazolo[5,1-c][1,4]oxazin-2-yl]-4-methoxy-1H-indole-5-carbonitrile] | 0.031 | > 10 | 240.4 |  | 67 | 79 | 160 |
| COc1c(C#N)ccc2[nH]c(-c3nc4n(n3)CCOC4c3cccc(C)c3F)cc12 (single isomer, unassigned) [Compound 148, 2-[8-(2-fluoro-3-methylphenyl)-5,6-dihydro-8H-[1,2,4]triazolo[5,1-c][1,4]oxazin-2-yl]-4-methoxy-1H-indole-5-carbonitrile] | 0.074 |  |  | > 10 | 110 | 118 | 132 |
| COc1c(C#N)ccc2[nH]c(-c3cn4c(n3)C(c3c(F)cccc3Cl)OCC4)cc12 (single isomer, unassigned) [Compound 122, 2-[8-(2-chloro-6-fluorophenyl)-5,6-dihydro-8H-imidazo[2,1-c][1,4]oxazin-2-yl]-4-methoxy-1H-indole-5-carbonitrile] | 0.039 |  |  | > 10 | 74 | 90 | 145 |
| COc1c(C#N)ccc2[nH]c(-c3cn4c(n3)C(c3cccc(F)c3C(F)(F)F)OCC4)cc12 (single isomer, unassigned) [Compound 131, 2-[8-[3-fluoro-2-(trifluoromethyl)phenyl]-5,6-dihydro-8H-imidazo[2,1-c][1,4]oxazin-2-yl]-4-methoxy-1H-indole-5-carbonitrile] | 0.027 |  |  | 6.46 | 62 | 72 | 144 |
